Experimental data: ChEMBL document CHEMBL4420062, “Tfpi inhibitors and methods of use” (2013)

Experiment: Stability in human plasma assessed as parent compound remaining after 24 hrs
Assay type: ADME, cell-free
Details: read-out: Stability

| SMILES | remaining at 24 h [%] |
| --- | --- |
| CCN1C(=O)CC(SC[C@H](NC(=O)[C@H](CC(C)C)NC(=O)[C@H](CCCCN)NC(=O)[C@H](C)NC(=O)C(C)(C)NC(=O)[C@H](CC(C)C)NC(=O)[C@H](CCCNC(=N)N)NC(=O)[C@H](CCC(=O)O)NC(=O)[C@H](Cc2ccccc2)NC(=O)[C@H](Cc2ccc(O)cc2)NC(=O)CNC(=O)[C@@H](NC(=O)[C@@H](NC(=O)[C@H](Cc2cnc[nH]2)NC(=O)[C@@H](NC(=O)[C@H](CC(N)=O)NC(=O)[C@H]2CCCN2C(=O)[C@H](CCCCN)NC(=O)[C@H](CO)NC(=O)[C@H](CCC(N)=O)NC(=O)[C@H](Cc2ccccc2)NC(C)=O)C(C)C)C(C)(C)C)[C@@H](C)O)C(N)=O)C1=O (stereo partly specified) | 52.6 |
| CC(=O)N[C@@H](Cc1ccccc1)C(=O)N[C@@H](CCC(N)=O)C(=O)N[C@@H](CO)C(=O)N[C@@H](CCCCN)C(=O)N1CCC[C@@H]1C(=O)N[C@@H](CC(N)=O)C(=O)N[C@H](C(=O)N[C@@H](Cc1cnc[nH]1)C(=O)N[C@H](C(=O)N[C@@H](CC(=O)O)C(=O)N[C@@H]1CSSC[C@@H](C(=O)N[C@@H](CCCNC(=N)N)C(=O)N[C@@H](CC(C)C)C(=O)N[C@@H](C)C(=O)N[C@@H](C)C(=O)N[C@@H](CCCCN)C(=O)N[C@@H](CC(C)C)C(N)=O)NC(=O)[C@H](Cc2ccccc2)NC(=O)[C@H](Cc2ccc(O)cc2)NC1=O)C(C)(C)C)C(C)C | 49.3 |
| CC(=O)N[C@@H](Cc1ccccc1)C(=O)N[C@@H](CCC(N)=O)C(=O)N[C@@H](CO)C(=O)N[C@@H](CCCCN)C(=O)N1CCC[C@@H]1C(=O)N[C@@H](CCCNC(=N)N)C(=O)N[C@H](C(=O)N[C@@H](Cc1cnc[nH]1)C(=O)N[C@H](C(=O)N[C@@H](CC(=O)O)C(=O)NCC(=O)N[C@@H](Cc1ccc(O)cc1)C(=O)N[C@@H](Cc1ccccc1)C(=O)N[C@@H](CCC(=O)O)C(=O)N[C@@H](CCCNC(=N)N)C(=O)N[C@@H](CC(C)C)C(=O)NC(C)(C)C(=O)N[C@@H](C)C(=O)N[C@@H](CCCCN)C(=O)N[C@@H](CC(C)C)C(N)=O)C(C)(C)C)C(C)C | 66.1 |
| CC(=O)N[C@@H](Cc1ccccc1)C(=O)N[C@@H](CCC(N)=O)C(=O)N[C@@H](CO)C(=O)N[C@@H](CCCCN)C(=O)N(CCCN)CC(=O)N[C@@H](CC(N)=O)C(=O)N[C@H](C(=O)N[C@@H](Cc1cnc[nH]1)C(=O)N[C@H](C(=O)N[C@@H](CC(=O)O)C(=O)NCC(=O)N[C@@H](Cc1ccc(O)cc1)C(=O)N[C@@H](Cc1ccccc1)C(=O)N[C@@H](CCC(=O)O)C(=O)N[C@@H](CCCNC(=N)N)C(=O)N[C@@H](CC(C)C)C(=O)NC(C)(C)C(=O)N[C@@H](C)C(=O)N[C@@H](CCCCN)C(=O)N[C@@H](CC(C)C)C(N)=O)C(C)C)C(C)C | 46.7 |
| CC(C)C[C@H](NC(=O)[C@H](CCCCN)NC(=O)[C@H](C)NC(=O)C(C)(C)NC(=O)[C@H](CC(C)C)NC(=O)[C@H](CCCNC(=N)N)NC(=O)[C@H](CCC(=O)O)NC(=O)[C@H](Cc1ccccc1)NC(=O)[C@H](Cc1ccc(O)cc1)NC(=O)[C@@H](C)NC(=O)[C@H](CC(=O)O)NC(=O)[C@@H](NC(=O)[C@H](Cc1cnc[nH]1)NC(=O)[C@@H](NC(=O)[C@H](CC(N)=O)NC(=O)[C@H]1CCCN1C(=O)[C@H](CCCCN)NC(=O)[C@H](CO)NC(=O)[C@H](CCC(N)=O)NC(=O)[C@H](Cc1ccccc1)NS(=O)(=O)c1ccc2ccccc2c1)C(C)C)C(C)(C)C)C(N)=O | 105 |
| CCN1C(=O)CC(SC[C@H](NC(=O)[C@H](CC(C)C)NC(=O)[C@H](CCCCN)NC(=O)[C@H](C)NC(=O)C(C)(C)NC(=O)[C@H](CC(C)C)NC(=O)[C@H](CCCNC(=N)N)NC(=O)[C@H](CCC(=O)O)NC(=O)[C@H](Cc2ccccc2)NC(=O)[C@H](Cc2ccc(O)cc2)NC(=O)CNC(=O)[C@@H](CC(=O)O)NC(=O)[C@@H](NC(=O)[C@H](Cc2cnc[nH]2)NC(=O)[C@@H](NC(=O)[C@H](CS)NC(=O)[C@H]2CCCN2C(=O)[C@H](CCCCN)NC(=O)[C@H](CO)NC(=O)[C@H](CCC(N)=O)NC(=O)[C@H](Cc2ccccc2)NC(C)=O)C(C)C)C(C)C)C(N)=O)C1=O (stereo partly specified) | 70.9 |
| CC(=O)N[C@@H](Cc1ccccc1)C(=O)N[C@@H](CCC(N)=O)C(=O)N[C@@H](CO)C(=O)N[C@@H](CCCCN)C(=O)N1CCC[C@@H]1C(=O)N[C@@H](CC(N)=O)C(=O)N[C@H](C(=O)N[C@@H](Cc1cnc[nH]1)C(=O)N[C@H](C(=O)N1CCC[C@H]1C(=O)NCC(=O)N[C@@H](Cc1ccc(O)cc1)C(=O)N[C@@H](Cc1ccccc1)C(=O)N[C@@H](CCC(=O)O)C(=O)N[C@@H](CCCNC(=N)N)C(=O)N[C@@H](CC(C)C)C(=O)NC(C)(C)C(=O)N[C@@H](C)C(=O)N[C@@H](CCCCN)C(=O)N[C@@H](CC(C)C)C(N)=O)C(C)C)C(C)C | 76.3 |
| CC(=O)N[C@@H](Cc1ccccc1)C(=O)N[C@@H](CCC(N)=O)C(=O)N[C@@H](CO)C(=O)N[C@@H](CCCCN)C(=O)N1CCC[C@@H]1C(=O)N[C@@H](CC(N)=O)C(=O)N[C@H](C(=O)N[C@@H](Cc1cnc[nH]1)C(=O)N[C@H](C(=O)N[C@@H](CC(=O)O)C(=O)N[C@H](C)C(=O)N[C@@H](Cc1ccc(O)cc1)C(=O)N[C@@H](Cc1ccccc1)C(=O)N[C@@H](CCC(=O)O)C(=O)N[C@@H](CCCNC(=N)N)C(=O)N[C@@H](CC(C)C)C(=O)NC(C)(C)C(=O)N[C@H]1CSSCCNC(=O)[C@H](CC(C)C)NC(=O)[C@H](CCCCN)NC1=O)C(C)(C)C)C(C)C | 16 |
| CC(=O)N[C@@H](Cc1ccccc1)C(=O)N[C@@H](CCC(N)=O)C(=O)N[C@@H](CO)C(=O)N[C@@H](CCCCN)C(=O)N(CC(=O)N[C@@H](CC(N)=O)C(=O)N[C@H](C(=O)N[C@@H](Cc1cnc[nH]1)C(=O)N[C@H](C(=O)N[C@@H](CC(=O)O)C(=O)NCC(=O)N[C@@H](Cc1ccc(O)cc1)C(=O)N[C@@H](Cc1ccccc1)C(=O)N[C@@H](CCC(=O)O)C(=O)N[C@@H](CCCNC(=N)N)C(=O)N[C@@H](CC(C)C)C(=O)NC(C)(C)C(=O)N[C@@H](C)C(=O)N[C@@H](CCCCN)C(=O)N[C@@H](CC(C)C)C(N)=O)C(C)C)C(C)C)C1CCCCC1 | 17.4 |
| CCN1C(=O)CC(SC[C@H](NC(=O)[C@H](CC(C)C)NC(=O)[C@H](CCCCN)NC(=O)[C@H](C)NC(=O)C(C)(C)NC(=O)[C@H](CC(C)C)NC(=O)[C@H](CCCNC(=N)N)NC(=O)[C@H](CCC(=O)O)NC(=O)[C@H](Cc2ccccc2)NC(=O)[C@H](Cc2ccc(O)cc2)NC(=O)CNC(=O)[C@@H](NC(=O)[C@@H](NC(=O)[C@H](Cc2cnc[nH]2)NC(=O)[C@@H](NC(=O)[C@H](CC(N)=O)NC(=O)[C@H]2CCCN2C(=O)[C@H](CCCCN)NC(=O)[C@H](CO)NC(=O)[C@H](CCC(N)=O)NC(=O)[C@H](Cc2ccccc2)NC(C)=O)C(C)C)C(C)C)[C@@H](C)O)C(N)=O)C1=O (stereo partly specified) | 41.4 |
| CCN1C(=O)CC(SC[C@H](NC(=O)[C@H](CC(C)C)NC(=O)[C@H](CCCCN)NC(=O)[C@H](C)NC(=O)C(C)(C)NC(=O)[C@H](CC(C)C)NC(=O)[C@H](CCCNC(=N)N)NC(=O)[C@H](CCC(=O)O)NC(=O)[C@H](Cc2ccccc2)NC(=O)[C@H](Cc2ccc(O)cc2)NC(=O)CNC(=O)[C@H](CC(=O)O)N(C)C(=O)[C@@H](NC(=O)[C@H](Cc2cnc[nH]2)NC(=O)[C@@H](NC(=O)[C@H](CC(N)=O)NC(=O)[C@H]2CCCN2C(=O)[C@H](CCCCN)NC(=O)[C@H](CO)NC(=O)[C@H](CCC(N)=O)NC(=O)[C@H](Cc2ccccc2)NC(C)=O)C(C)C)C(C)C)C(N)=O)C1=O (stereo partly specified) | 46.5 |
| CCN1C(=O)CC(SC[C@H](NC(=O)[C@H](CC(C)C)NC(=O)[C@H](CCCCN)NC(=O)[C@H](C)NC(=O)C(C)(C)NC(=O)[C@H](CC(C)C)NC(=O)[C@H](CCCNC(=N)N)NC(=O)[C@H](CCC(=O)O)NC(=O)[C@H](Cc2ccccc2)NC(=O)[C@H](Cc2ccc(O)cc2)NC(=O)CNC(=O)[C@@H]2CCCN2C(=O)[C@@H](NC(=O)[C@H](Cc2cnc[nH]2)NC(=O)[C@@H](NC(=O)[C@H](CC(N)=O)NC(=O)[C@H]2CCCN2C(=O)[C@H](CCCCN)NC(=O)[C@H](CO)NC(=O)[C@H](CCC(N)=O)NC(=O)[C@H](Cc2ccccc2)NC(C)=O)C(C)C)C(C)C)C(N)=O)C1=O (stereo partly specified) | 58 |
| CCN1C(=O)CC(SC[C@H](NC(=O)[C@H](CC(C)C)NC(=O)[C@H](CCCCN)NC(=O)[C@H](C)NC(=O)C(C)(C)NC(=O)[C@H](CC(C)C)NC(=O)[C@H](CCCNC(=N)N)NC(=O)[C@H](CCC(=O)O)NC(=O)[C@H](Cc2ccccc2)NC(=O)[C@H](Cc2ccc(O)cc2)NC(=O)CNC(=O)[C@H](CC(=O)O)NC(=O)[C@@H](NC(=O)[C@H](Cc2cnc[nH]2)NC(=O)[C@@H](NC(=O)[C@H](CC(N)=O)NC(=O)[C@H]2CCCN2C(=O)[C@H](CCCCN)NC(=O)[C@H](CO)NC(=O)[C@H](CCC(N)=O)NC(=O)[C@H](Cc2ccccc2)NC(C)=O)C(C)C)C(C)(C)C)C(N)=O)C1=O (stereo partly specified) | 52 |
| CCN1C(=O)CC(SC[C@H](NC(=O)[C@H](CC(C)C)NC(=O)[C@H](CCCCN)NC(=O)[C@H](C)NC(=O)C(C)(C)NC(=O)[C@H](CC(C)C)NC(=O)[C@H](CCCNC(=N)N)NC(=O)[C@H](CCC(=O)O)NC(=O)[C@H](Cc2ccccc2)NC(=O)[C@H](Cc2ccc(O)cc2)NC(=O)CNC(=O)[C@@H]2CCCN2C(=O)[C@@H](NC(=O)[C@H](Cc2cnc[nH]2)NC(=O)[C@@H](NC(=O)[C@H](CC(N)=O)NC(=O)[C@H]2CCCN2C(=O)[C@H](CCCCN)NC(=O)[C@H](CO)NC(=O)[C@H](CCC(N)=O)NC(=O)[C@H](Cc2ccccc2)NC(C)=O)C(C)C)C(C)(C)C)C(N)=O)C1=O (stereo partly specified) | 55.9 |
| CCN1C(=O)CC(SC[C@H](NC(=O)[C@H](CC(C)C)NC(=O)[C@H](CCCCN)NC(=O)[C@H](C)NC(=O)C(C)(C)NC(=O)[C@H](CC(C)C)NC(=O)[C@H](CCCNC(=N)N)NC(=O)[C@H](CCC(=O)O)NC(=O)[C@H](Cc2ccccc2)NC(=O)[C@H](Cc2ccc(O)cc2)NC(=O)CNC(=O)[C@H](CO)NC(=O)[C@@H](NC(=O)[C@H](Cc2cnc[nH]2)NC(=O)[C@@H](NC(=O)[C@H](CC(N)=O)NC(=O)[C@H]2CCCN2C(=O)[C@H](CCCCN)NC(=O)[C@H](CO)NC(=O)[C@H](CCC(N)=O)NC(=O)[C@H](Cc2ccccc2)NC(C)=O)C(C)C)C(C)C)C(N)=O)C1=O (stereo partly specified) | 33.4 |
| CCN1C(=O)CC(SC[C@H](NC(=O)[C@H](CC(C)C)NC(=O)[C@H](CCCCN)NC(=O)[C@H](C)NC(=O)C(C)(C)NC(=O)[C@H](CC(C)C)NC(=O)[C@H](CCCNC(=N)N)NC(=O)[C@H](CCC(=O)O)NC(=O)[C@H](Cc2ccccc2)NC(=O)[C@H](Cc2ccc(O)cc2)NC(=O)[C@H](C)NC(=O)[C@H](CC(=O)O)NC(=O)[C@@H](NC(=O)[C@H](Cc2cnc[nH]2)NC(=O)[C@@H](NC(=O)[C@H](CC(N)=O)NC(=O)[C@H]2CCCN2C(=O)[C@H](CCCCN)NC(=O)[C@H](CO)NC(=O)[C@H](CCC(N)=O)NC(=O)[C@H](Cc2ccccc2)NC(C)=O)C(C)C)C(C)C)C(N)=O)C1=O (stereo partly specified) | 17.9 |
